Experimental data as given in patent US8273375B2, “Multiparticle pharmaceutical dosage form for a low-soluble active substances and method for producing said pharmaceutical dosage form” (Evonik Roehm GmbH, priority 2004, dated 2012).
≈ marks a conversion by molar mass, not a printed value.

Assay: physchem
Conditions: for solubility: water
Experimental: The lipophilic matrix may consist of a single substance, e.g. a lipid, or of a mixture of substances, e.g. a mixture of lipids. In the case of mixtures, the DAB 10 water-solubility properties, the partition coefficients and the HLB values specified below are calculated from the arithmetic mean of the corresponding values of the substances and from their amounts in parts by weight. The substances used here must not be toxic.
The water-solubility of the active substance and the substance or substances forming the lipophilic matrix can be defined as described in DAD 10 German Pharmacopeia 10th ed. with 3rd suppl. 1994, published by Deutscher Apothekerverlag [=German Pharmacologic Publishing House], Stuttgart and by Govi Verlag, Frankfurt am Main, 2nd suppl. 1993, see Section IV “Allgemeine Vorschriften” [=General Methods] on pages 5 and 6, entitled “Löslichkeit und Lösungsmittell” [=Solubility and Solvents]; see also Ph. Eur. 4.07, 2004). The solubility is given here by the number of parts by volume of a solvent needed to dissolve 1 part by weight of the substance, such as a drug. “Low solubility” applies to substances that need 30-100 parts by volume of solvent to dissolve 1 part by weight of the substance or drug in question, while the terms “very low solubility”, “sparingly soluble” and “difficultly soluble” apply to substances that need 100-1000 parts by volume of a solvent to dissolve 1 part by weight of the substance or drug in question.

| Water solubility according to DAB 10: parts of water needed to dissolve 1 part of the active substance | solubility | SMILES |
| --- | --- | --- |
| at least 10,000 parts of water | 100 µg/mL (≈ 396 µM) | NC(=O)N1c2ccccc2CC(=O)c2ccccc21 [Oxcarbazepine] |
| at least 1000 parts of water | 1000 µg/mL (≈ 2800 µM) | CN(CCOc1ccc(CC2SC(=O)NC2=O)cc1)c1ccccn1 (stereo not shown) [Rosiglitazone] |
